Results: ChEMBL document CHEMBL1806426, “Simple but powerful: phenanthroline-based small molecules for cellular imaging and cancer screening” (Bioorg Med Chem Lett, 2011)

Key:
[1] = Ratio of IC50 for cytotoxicity against human HET-1A cells to IC50 for cytotoxicity against human OE21 cells; format: toxicity, cell-based; settings: HET-1A cells and OE21 cells, read-out: Ratio IC50
[2] = Drug uptake in human OE21 endoplasmic reticulum assessed as fluorescence intensity at 18 uM after 20 mins to 2 hrs by confocal microscopy; format: ADME
[3] = Solubility of the compound in phosphate buffer solution at pH7.4; format: physicochemical; settings: pH 7.4
[4] = Cytotoxicity against human HET-1A cells assessed as cell survival after 24 hrs by MTT assay; format: cell-based
[5] = Drug uptake in human OE21 endoplasmic reticulum at 27 uM after 20 mins by confocal microscopy; format: ADME
[6] = Cytotoxicity against human OE21 cells assessed as cell survival after 24 hrs by MTT assay; format: functional, cell-based; settings: OE21, 24 h
[7] = Drug uptake in human HET-1A endoplasmic reticulum after 20 mins to 2 hrs by confocal microscopy; format: ADME
[8] = Drug uptake in human OE21 endoplasmic reticulum at 9 uM after 5 mins by confocal microscopy; format: ADME
[9] = Drug uptake in human HET-1A endoplasmic reticulum after 5 mins by confocal microscopy; format: ADME

Drug uptake [2]	solubility [3]	Drug uptake [5]	Drug uptake [7]	Drug uptake [8]	Drug uptake [9]	Compound	selectivity ratio [1]	IC50 [4] [nM]	IC50 [6] [nM]
Active	soluble	Active	Active	Active	–	Brc1ccc(-c2nc3c4cccnc4c4ncccc4c3[nH]2)cc1	4	3150	770
Active	soluble	Active	Active	Active	Active	C[Si](C)(C)C#Cc1ccc(-c2nc3c4cccnc4c4ncccc4c3[nH]2)cc1	7	3020	440
